Here are results for 1 molecule from US4929639A, “Oxygen-containing heterocyclic compound” (Fujisawa Pharmaceutical Company, Ltd., priority 1988, dated 1990).

This assay concerns rabbit platelet. The assay is described as follows: Effect on 9,11-azo PGH2 induced aggregation of rabbit platelet in vitro. The assay is classed as cell-based. The conditions noted are these: Oryctolagus cuniculus, rabbit PRP, 9,11-azo PGH2 final 1.0 μM, 37° C., 2 minutes preincubation, read-out: IC50 (Inhibition concentration of platelet aggregation by 50%). The source says:
In the following tests, the used 9, 11-azo PGH2 and 9,11-methanoepoxy PGH2 (U46619) are characterized pharmacologically as TXA2 mimetic agents and widely used for evaluating TXA2 antagonism of test compounds (for example, vida The Journal of Pharmacology and Experimental Therapeutics Vol. 234, pp 435-441).
Test 1 (Effect on 9,11-azo PGH2 induced aggregation of rabbit platelet in vitro)
In the in vitro experiments, the blood was collected from the carotid artery of rabbits into plastic vessels containing 0.1 volume of 3.8% aqueous sodium citrate. Platelet rich plasma (PRP) was prepared by centrifugation at 150 g for 15 minutes. Platelet aggregation was investigated using the turbidometric method with an aggregometer (NKK HEMATRACER 1). To the 225 μl of PRP, 25 μl of test compound solution was added, and then stirred at 1000 rpm for 2 minutes at 37° C. To the solution, 5 μl of 9,11-azo PGH2 (final 1.0 μM) was added as an aggregating inducer. IC50 (Inhibition concentration of platelet aggregation by 50%) were graphically determined.

As to `C[C@@H]1OC[C@H](C/C=C\CCCC(=O)O)[C@H](C=NNC(=O)Nc2ccccc2)O1` [Test compound 2], the IC50 amounted to 260 nM.
